Measured values published in patent EP1025114B1, “3'-N-MODIFIED 6-O-SUBSTITUTED ERYTHROMYCIN KETOLIDE DERIVATIVES HAVING ANTIBACTERIAL ACTIVITY” (priority 1997, dated 1999).

Legend:
Experiment in all cases: In vitro antibacterial activity, agar dilution MIC
Type in all cases: cell-based
[1] = test system: Haemophilis Influenzae DILL AMP R; conditions: Haemophilis Influenzae DILL AMP R (organism code WW); BHI agar, 35-37 °C, 20 to 24 hours; unit assumed
Description: (§1) Representative compounds of the present invention were assayed in vitro for antibacterial activity as follows: Twelve petri dishes containing successive aqueous dilutions of the test compound mixed with 10 mL of sterilized Brain Heart infusion (BHI) agar (Difco 0418-01-5) were prepared. Each plate was inoculated with 1:100 (or 1:10 for slow-growing strains, such as Micrococcus and Streptococcus) dilutions of up to 32 different microorganisms, using a Steers replicator block. […] In addition, a control plate, using BHI agar containing no test compound, was prepared and incubated at the beginning and end of each test.
(§2) An additional plate containing a compound having known susceptibility patterns for the organisms being tested and belonging to the same antibiotic class as the test compound was also prepared and incubated as a further control, as well as to provide test-to-test comparability.
(§3) After incubation, each plate was visually inspected. The minimum inhibitory concentration (MIC) was defined as the lowest concentration of drug yielding no growth, a slight haze, or sparsely isolated colonies on the inoculum spot as compared to the growth control.

[2] = test system: Staphylococcus epidermidis 3519; conditions: Staphylococcus epidermidis 3519 (organism code HH); BHI agar, 35-37 °C, 20 to 24 hours; unit assumed
Description: as §1, §2, §3

[3] = test system: Staphylococcus aureus A-5278; conditions: Staphylococcus aureus A-5278 (organism code CC); BHI agar, 35-37 °C, 20 to 24 hours; unit assumed
Description: as §1, §2, §3

[4] = test system: Streptococcus pyogenes EES61; conditions: Streptococcus pyogenes EES61 (organism code LL); BHI agar, 35-37 °C, 20 to 24 hours; unit assumed
Description: as §1, §2, §3

[5] = test system: Staphylococcus aureus ATCC 6538P; conditions: Staphylococcus aureus ATCC 6538P (organism code AA); BHI agar, 35-37 °C, 20 to 24 hours; unit assumed
Description: as §1, §2, §3

[6] = test system: Micrococcus luteus ATCC 9341; conditions: Micrococcus luteus ATCC 9341 (organism code OO); BHI agar, 35-37 °C, 20 to 24 hours; unit assumed
Description: as §1, §2, §3

[7] = test system: Streptococcus agalactiae CMX 508; conditions: Streptococcus agalactiae CMX 508 (organism code KK); BHI agar, 35-37 °C, 20 to 24 hours; unit assumed
Description: as §1, §2, §3

[8] = test system: Mycobacterium smegmatis ATCC 114; conditions: Mycobacterium smegmatis ATCC 114 (organism code UU); BHI agar, 35-37 °C, 20 to 24 hours; unit assumed
Description: as §1, §2, §3

[9] = test system: Streptococcus Pheumoniae GYR 1171; conditions: Streptococcus Pheumoniae GYR 1171 (organism code YY); BHI agar, 35-37 °C, 20 to 24 hours; unit assumed
Description: as §1, §2, §3

[10] = test system: Staphylococcus aureus CMX 553; conditions: Staphylococcus aureus CMX 553 (organism code FF); BHI agar, 35-37 °C, 20 to 24 hours; unit assumed
Description: as §1, §2, §3

[11] = test system: Streptococcus Pheumoniae 5649; conditions: Streptococcus Pheumoniae 5649 (organism code ZZA); BHI agar, 35-37 °C, 20 to 24 hours; unit assumed
Description: as §1, §2, §3

[12] = test system: Streptococcus Pheumoniae 5979; conditions: Streptococcus Pheumoniae 5979 (organism code ZZ); BHI agar, 35-37 °C, 20 to 24 hours; unit assumed
Description: as §1, §2, §3

[13] = test system: Streptococcus pyogenes PIU 2548; conditions: Streptococcus pyogenes PIU 2548 (organism code NN); BHI agar, 35-37 °C, 20 to 24 hours; unit assumed
Description: as §1, §2, §3

Escherichia coli SS = Escherichia coli SS (organism code RR); BHI agar, 35-37 °C, 20 to 24 hours; unit assumed
Description: as §1, §2, §3

[14] = test system: Micrococcus luteus ATCC 4698; conditions: Micrococcus luteus ATCC 4698 (organism code PP); BHI agar, 35-37 °C, 20 to 24 hours; unit assumed
Description: as §1, §2, §3

[15] = test system: Staphylococcus aureus A5177; conditions: Staphylococcus aureus A5177 (organism code BB); BHI agar, 35-37 °C, 20 to 24 hours; unit assumed
Description: as §1, §2, §3

[16] = test system: Staphylococcus aureus 1775; conditions: Staphylococcus aureus 1775 (organism code GG); BHI agar, 35-37 °C, 20 to 24 hours; unit assumed
Description: as §1, §2, §3

[17] = test system: Streptococcus bovis A-5169; conditions: Streptococcus bovis A-5169 (organism code JJ); BHI agar, 35-37 °C, 20 to 24 hours; unit assumed
Description: as §1, §2, §3

Escherichia coli DC-2 = Escherichia coli DC-2 (organism code SS); BHI agar, 35-37 °C, 20 to 24 hours; unit assumed
Description: as §1, §2, §3

Escherichia coli JUHL = Escherichia coli JUHL (organism code QQ); BHI agar, 35-37 °C, 20 to 24 hours; unit assumed
Description: as §1, §2, §3

Candida albicans CCH 442 = Candida albicans CCH 442 (organism code TT); BHI agar, 35-37 °C, 20 to 24 hours; unit assumed
Description: as §1, §2, §3

[18] = test system: Staphylococcus aureus CMX 642A; conditions: Staphylococcus aureus CMX 642A (organism code DD); BHI agar, 35-37 °C, 20 to 24 hours; unit assumed
Description: as §1, §2, §3

[19] = test system: Streptococcus pyogenes 930; conditions: Streptococcus pyogenes 930 (organism code MM); BHI agar, 35-37 °C, 20 to 24 hours; unit assumed
Description: as §1, §2, §3

[20] = test system: Enterococcus faecium ATCC 8043; conditions: Enterococcus faecium ATCC 8043 (organism code II); BHI agar, 35-37 °C, 20 to 24 hours; unit assumed
Description: as §1, §2, §3

[21] = test system: Nocardia Asteroides ATCC9970; conditions: Nocardia Asteroides ATCC9970 (organism code VV); BHI agar, 35-37 °C, 20 to 24 hours; unit assumed
Description: as §1, §2, §3

[22] = test system: Staphylococcus aureus NCTC10649M; conditions: Staphylococcus aureus NCTC10649M (organism code EE); BHI agar, 35-37 °C, 20 to 24 hours; unit assumed
Description: as §1, §2, §3

[23] = test system: Streptococcus Pheumoniae ATCC6303; conditions: Streptococcus Pheumoniae ATCC6303 (organism code XX); BHI agar, 35-37 °C, 20 to 24 hours; unit assumed
Description: as §1, §2, §3

SMILES | MIC [1] [µg/mL] | MIC [2] [µg/mL] | MIC [3] [µg/mL] | MIC [4] [µg/mL] | MIC [5] [µg/mL] | MIC [6] [µg/mL] | MIC [7] [µg/mL] | MIC [8] [µg/mL] | MIC [9] [µg/mL] | MIC [10] [µg/mL] | MIC [11] [µg/mL] | MIC [12] [µg/mL] | MIC [13] [µg/mL] | MIC (Escherichia coli SS) [µg/mL] | MIC [14] [µg/mL] | MIC [15] [µg/mL] | MIC [16] [µg/mL] | MIC [17] [µg/mL] | MIC (Escherichia coli DC-2) [µg/mL] | MIC (Escherichia coli JUHL) [µg/mL] | further results
CC[C@H]1OC(=O)[C@H](C)C(=O)[C@H](C)[C@@H](O[C@@H]2O[C@H](C)C[C@H](NC)[C@H]2OC(C)=O)[C@](C)(OCC=Cc2cnc3ccccc3c2)C[C@@H](C)C(=O)[C@H](C)[C@H]2NC(=O)O[C@@]21C [Example 2, Compound of formula (II), R is -CH2CH=CH-(3-quinolyl), R^p is acetyl, R^1 is H, R^2 is CH3, W is absent, R^w is H] | 16 | 0.2 | > 100 | ≤ 0.005 | 0.2 | 0.02 | ≤ 0.005 | 3.1 | 0.03 | 0.2 | 0.5 | 128 | 0.39 | 0.39 | 0.1 | 0.2 | > 100 | ≤ 0.005 | > 100 | > 100 | MIC (Candida albicans CCH 442): > 100 µg/mL; MIC [18]: 0.2 µg/mL; MIC [19]: 25 µg/mL; MIC [20]: 0.05 µg/mL; MIC [21]: 1.56 µg/mL; MIC [22]: 0.2 µg/mL; MIC [23]: 0.03 µg/mL
CC[C@H]1OC(=O)[C@H](C)C(=O)[C@H](C)[C@@H](O[C@@H]2O[C@H](C)C[C@H](NC)[C@H]2O)[C@](C)(OCC=Cc2cnc3ccccc3c2)C[C@@H](C)C(=O)[C@H](C)[C@H]2NC(=O)O[C@@]21C [Example 3, Compound of Formula (II); R is -CH2CH=CH-(3-quinolyl), R^p is H, W is absent, R^w is H, R^1 is H, R^2 is CH3-] | 16 | 0.39 | > 100 | 0.01 | 0.2 | 0.02 | 0.02 | 12.5 | 0.03 | 0.39 | 0.5 | > 128 | 0.39 | 0.78 | 0.1 | 0.2 | > 100 | 0.01 | > 100 | > 100 | MIC (Candida albicans CCH 442): > 100 µg/mL; MIC [18]: 0.39 µg/mL; MIC [19]: 12.5 µg/mL; MIC [20]: 0.2 µg/mL; MIC [21]: 3.1 µg/mL; MIC [22]: 0.39 µg/mL; MIC [23]: 0.03 µg/mL
CCOC(=O)CN(C)[C@H]1C[C@@H](C)O[C@@H](O[C@@H]2[C@@H](C)C(=O)[C@@H](C)C(=O)O[C@H](CC)[C@@]3(C)OC(=O)N[C@@H]3[C@@H](C)C(=O)[C@H](C)C[C@@]2(C)OCC=Cc2cnc3ccccc3c2)[C@@H]1O [Example 5, Compound of Formula (II); R is -CH2CH=CH-(3-quinolyl), R^p is H, W is absent, R^w is H, R^1 is CH2C(O)-O-CH2CH3, R^2 is CH3.] | 128 | 12.5 | > 100 | 0.39 | 6.2 | 0.78 | 1.56 | 25 | 0.25 | 12.5 | 2 | > 128 | 6.2 | 25 | 6.2 | 12.5 | > 100 | 1.56 | > 100 | > 100 | MIC (Candida albicans CCH 442): > 100 µg/mL; MIC [18]: 12.5 µg/mL; MIC [19]: > 100 µg/mL; MIC [20]: 6.2 µg/mL; MIC [21]: 25 µg/mL; MIC [22]: 12.5 µg/mL; MIC [23]: 0.25 µg/mL
